biological target: human CXCR3A (Homo sapiens (Human), UniProt P49682); assay: FLIPR assay (inhibition of CXCL10-induced calcium signal); assay type: cell-based; conditions: engineered CHO-K1 cells expressing human CXCR3A coupled to Galpha(16); Fluo-4-AM; CXCL10 agonist 20 nM; mean values where determined several times
Experimental: The bioactivity of compounds is tested in a fluorometric imaging plate reader (FLIPR: Molecular Devices) using engineered CHO-K1 cells expressing the human CXCR3A (GenBank: AY242128) coupled to a G protein (Galpha(16)). Cells are plated the day prior to bioassay in F12 medium supplemented with 10% FBS and G418 and hygromycin antibiotics to maintain recombinant selection. At the day of bioassay, cells are washed and dye loaded for one hour with Fluo-4-AM (Invitrogen) in Hanks Balanced Salt Solution (Invitrogen), buffered with 20 mM Hepes at pH 7.4 and sodium bicarbonate (0.038%), containing 5 mM probenecid. This buffer, but lacking the dye and containing probenecid at a concentration of 2.5 mM, is also used for washing steps (wash buffer); or lacking both dye and probenecid but supplemented with 0.1% BSA for compound dilution steps (dilution buffer). Cells are washed free of excess dye and 60 microliter of wash buffer is added. Stock solutions of test compounds are made up at a concentration of 10 mM in DMSO, and serially diluted in dilution buffer to concentrations required for inhibition dose response curves. After a 10 minute incubation period at 37° C., 10 microliters of each compound dilution are transferred from a compound plate to the plate containing the recombinant cells in the FLIPR instrument according to the manufacturer's instructions. Following basal readings, 10 microliter CXCL10 agonist at a concentration of 20 nM (from Peprotech) is added, again using the FLIPR instrument. Changes in fluorescence are monitored before and after addition of the test compounds. Emission peak values above base level after CXCL10 addition are exported after base line subtraction.
The calculated IC50 values may fluctuate depending on the daily assay performance. Fluctuations of this kind are known to those skilled in the art. In the case where IC50 values have been determined several times for the same compound, mean values are given.

Sequence of human CXCR3A (P49682 whole entry): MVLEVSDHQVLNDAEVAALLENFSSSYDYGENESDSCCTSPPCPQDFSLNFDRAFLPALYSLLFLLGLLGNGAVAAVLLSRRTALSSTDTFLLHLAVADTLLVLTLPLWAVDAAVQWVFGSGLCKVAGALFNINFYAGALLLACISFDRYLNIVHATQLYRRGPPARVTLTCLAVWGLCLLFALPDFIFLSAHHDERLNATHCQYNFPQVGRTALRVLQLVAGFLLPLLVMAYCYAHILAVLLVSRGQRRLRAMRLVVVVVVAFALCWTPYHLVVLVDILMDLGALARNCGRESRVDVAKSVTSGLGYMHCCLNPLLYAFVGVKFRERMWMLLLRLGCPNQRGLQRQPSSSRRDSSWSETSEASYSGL

SMILES	IC50 [nM]
Cc1cc(C)n(CC(=O)N2CCN(c3ccc(C(F)(F)F)c4c3CN(c3ncc(Cn5cccn5)s3)CC4)C[C@H]2C)n1 [Example 1, 2-(3,5-Dimethyl-pyrazol-1-yl)-1-{(R)-2-methyl-4-[2-(5-pyrazol-1-ylmethyl-thiazol-2-yl)-5-trifluoromethyl-1,2,3,4-tetrahydro-isoquinolin-8-yl]-piperazin-1-yl}-ethanone]	4.47
Cc1cc(C)n(CC(=O)N2CCN(c3ccc(C(F)(F)F)c4c3CN(c3nc(C(F)(F)F)cs3)CC4)C[C@H]2C)n1 [Example 2, 2-(3,5-Dimethyl-pyrazol-1-yl)-1-{(R)-2-methyl-4-[5-trifluoromethyl-2-(4-trifluoromethyl-thiazol-2-yl)-1,2,3,4-tetrahydro-isoquinolin-8-yl]-piperazin-1-yl}-ethanone]	6.07
CCc1csc(N2CCc3c(C(F)(F)F)ccc(N4CCN(C(=O)Cn5nc(C)cc5C)[C@H](C)C4)c3C2)n1 [Example 3, 2-(3,5-Dimethyl-pyrazol-1-yl)-1-{(R)-4-[2-(4-ethyl-thiazol-2-yl)-5-trifluoromethyl-1,2,3,4-tetrahydro-isoquinolin-8-yl]-2-methyl-piperazin-1-yl}-ethanone]	15.1
Cc1cc(C)n(CC(=O)N2CCN(c3ccc(C(F)(F)F)c4c3CN(c3nc(C(C)(C)C)cs3)CC4)C[C@H]2C)n1 [Example 4, 1-{(R)-4-[2-(4-tert.-Butyl-thiazol-2-yl)-5-trifluoromethyl-1,2,3,4-tetrahydro-isoquinolin-8-yl]-2-methyl-piperazin-1-yl}-2-(3,5-dimethyl-pyrazol-1-yl)-ethanone]	20.6
Cc1cc(C)n(CC(=O)N2CCN(c3ccc(C(F)(F)F)c4c3CN(c3nc(-c5ccccn5)cs3)CC4)C[C@H]2C)n1 [Example 5, 2-(3,5-Dimethyl-pyrazol-1-yl)-1-{(R)-2-methyl-4-[2-(4-pyridin-2-yl-thiazol-2-yl)-5-trifluoromethyl-1,2,3,4-tetrahydro-isoquinolin-8-yl]-piperazin-1-yl}-ethanone]	11
Cc1cc(C)n(CC(=O)N2CCN(c3ccc(C(F)(F)F)c4c3CN(c3ncc(Cl)s3)CC4)C[C@H]2C)n1 [Example 6, 1-{(R)-4-[2-(5-Chloro-thiazol-2-yl)-5-trifluoromethyl-1,2,3,4-tetrahydro-isoquinolin-8-yl]-2-methyl-piperazin-1-yl}-2-(3,5-dimethyl-pyrazol-1-yl)-ethanone]	18.1
Cc1cc(C)n(CC(=O)N2CCN(c3ccc(C(F)(F)F)c4c3CN(c3nc(C#N)cs3)CC4)C[C@H]2C)n1 [Example 7, 2-(8-{(R)-4-[2-(3,5-Dimethyl-pyrazol-1-yl)-acetyl]-3-methyl-piperazin-1-yl}-5-trifluoromethyl-3,4-dihydro-1H-isoquinolin-2-yl)-thiazole-4-carbonitrile]	29.2
Cc1cc(C)n(CC(=O)N2CCN(c3ccc(C(F)(F)F)c4c3CN(c3ncc(C#N)s3)CC4)C[C@H]2C)n1 [Example 8, 2-(8-{(R)-4-[2-(3,5-Dimethyl-pyrazol-1-yl)-acetyl]-3-methyl-piperazin-1-yl}-5-trifluoromethyl-3,4-dihydro-1H-isoquinolin-2-yl)-thiazole-5-carbonitrile]	8.88
Cc1ccc2nc(N3CCc4c(C(F)(F)F)ccc(N5CCN(C(=O)Cn6nc(C)cc6C)[C@H](C)C5)c4C3)sc2c1 [Example 9, 2-(3,5-Dimethyl-pyrazol-1-yl)-1-{(R)-2-methyl-4-[2-(6-methyl-benzothiazol-2-yl)-5-trifluoromethyl-1,2,3,4-tetrahydro-isoquinolin-8-yl]-piperazin-1-yl}-ethanone]	13.7
Cc1cc(C)n(CC(=O)N2CCN(c3ccc(C(F)(F)F)c4c3CN(c3nc5ccc(F)cc5s3)CC4)C[C@H]2C)n1 [Example 10, 2-(3,5-Dimethyl-pyrazol-1-yl)-1-{(R)-4-[2-(6-fluoro-benzothiazol-2-yl)-5-trifluoromethyl-1,2,3,4-tetrahydro-isoquinolin-8-yl]-2-methyl-piperazin-1-yl}-ethanone]	9.45
Cc1cc(C)n(CC(=O)N2CCN(c3ccc(C(F)(F)F)c4c3CN(c3nc5ccc(C#N)cc5s3)CC4)C[C@H]2C)n1 [Example 11, 2-(8-{(R)-4-[2-(3,5-Dimethyl-pyrazol-1-yl)-acetyl]-3-methyl-piperazin-1-yl}-5-trifluoromethyl-3,4-dihydro-1H-isoquinolin-2-yl)-benzothiazole-6-carbonitrile]	6.58
Cc1cc(C)n(CC(=O)N2CCN(c3ccc(C(F)(F)F)c4c3CN(c3nc5ccccc5o3)CC4)C[C@H]2C)n1 [Example 12, 1-[(R)-4-(2-Benzooxazol-2-yl-5-trifluoromethyl-1,2,3,4-tetrahydro-isoquinolin-8-yl)-2-methyl-piperazin-1-yl]-2-(3,5-dimethyl-pyrazol-1-yl)-ethanone]	9.39
Cc1cc(C)n(CC(=O)N2CCN(c3ccc(C(F)(F)F)c4c3CN(c3cnc(N(C)C)nc3)CC4)C[C@H]2C)n1 [Example 13, 1-{(R)-4-[2-(2-Dimethylamino-pyrimidin-5-yl)-5-trifluoromethyl-1,2,3,4-tetrahydro-isoquinolin-8-yl]-2-methyl-piperazin-1-yl}-2-(3,5-dimethyl-pyrazol-1-yl)-ethanone]	8.48
Cc1cc(C)n(CC(=O)N2CCN(c3ccc(C(F)(F)F)c4c3CN(c3ncc(Br)cn3)CC4)C[C@H]2C)n1 [Example 14, 1-{(R)-4-[2-(5-Bromo-pyrimidin-2-yl)-5-trifluoromethyl-1,2,3,4-tetrahydro-isoquinolin-8-yl]-2-methyl-piperazin-1-yl}-2-(3,5-dimethyl-pyrazol-1-yl)-ethanone]	27.7
Cc1cc(C)n(CC(=O)N2CCN(c3ccc(C(F)(F)F)c4c3CN(c3cnc(C5CC5)nc3)CC4)C[C@H]2C)n1 [Example 15, 1-{(R)-4-[2-(2-Cyclopropyl-pyrimidin-5-yl)-5-trifluoromethyl-1,2,3,4-tetrahydro-isoquinolin-8-yl]-2-methyl-piperazin-1-yl}-2-(3,5-dimethyl-pyrazol-1-yl)-ethanone]	3.58
C[C@@H]1CN(c2ccc(C(F)(F)F)c3c2CN(c2ccccc2)CC3)CCN1C(=O)Cn1cnc2cccnc21 [Example 16, 2-Imidazo[4,5-b]pyridin-3-yl-1-[(R)-2-methyl-4-(2-phenyl-5-trifluoromethyl-1,2,3,4-tetrahydro-isoquinolin-8-yl)-piperazin-1-yl]-ethanone]	6.19
COc1ncc(N2CCc3c(C(F)(F)F)ccc(N4CCN(C(=O)Cn5cnc6cccnc65)[C@H](C)C4)c3C2)cn1 [Example 17, 2-Imidazo[4,5-b]pyridin-3-yl-1-{(R)-4-[2-(2-methoxy-pyrimidin-5-yl)-5-trifluoromethyl-1,2,3,4-tetrahydro-isoquinolin-8-yl]-2-methyl-piperazin-1-yl}-ethanone]	9.2
COc1cccc(N2CCc3c(C(F)(F)F)ccc(N4CCN(C(=O)Cn5cnc6cccnc65)[C@H](C)C4)c3C2)c1 [Example 18, 2-Imidazo[4,5-b]pyridin-3-yl-1-{(R)-4-[2-(3-methoxy-phenyl)-5-trifluoromethyl-1,2,3,4-tetrahydro-isoquinolin-8-yl]-2-methyl-piperazin-1-yl}-ethanone]	13
COc1nc(OC)nc(N2CCc3c(C(F)(F)F)ccc(N4CCN(C(=O)Cn5cnc6cccnc65)[C@H](C)C4)c3C2)n1 [Example 19, 1-{(R)-4-[2-(4,6-Dimethoxy-[1,3,5]triazin-2-yl)-5-trifluoromethyl-1,2,3,4-tetrahydro-isoquinolin-8-yl]-2-methyl-piperazin-1-yl}-2-imidazo[4,5-b]pyridin-3-yl-ethanone]	11.7
CCOc1ncc(N2CCc3c(C(F)(F)F)ccc(N4CCN(C(=O)Cn5cnc6cccnc65)[C@H](C)C4)c3C2)cn1 [Example 20, 1-{(R)-4-[2-(2-Ethoxy-pyrimidin-5-yl)-5-trifluoromethyl-1,2,3,4-tetrahydro-isoquinolin-8-yl]-2-methyl-piperazin-1-yl}-2-imidazo[4,5-b]pyridin-3-yl-ethanone]	7.77
C[C@@H]1CN(c2ccc(C(F)(F)F)c3c2CN(c2ccc(Cl)cc2)CC3)CCN1C(=O)Cn1cnc2cccnc21 [Example 21, 1-{(R)-4-[2-(4-Chloro-phenyl)-5-trifluoromethyl-1,2,3,4-tetrahydro-isoquinolin-8-yl]-2-methyl-piperazin-1-yl}-2-imidazo[4,5-b]pyridin-3-yl-ethanone]	29.9
CCCc1ncc(N2CCc3c(C(F)(F)F)ccc(N4CCN(C(=O)Cn5cnc6cccnc65)[C@H](C)C4)c3C2)cn1 [Example 22, 2-Imidazo[4,5-b]pyridin-3-yl-1-{(R)-2-methyl-4-[2-(2-propyl-pyrimidin-5-yl)-5-trifluoromethyl-1,2,3,4-tetrahydro-isoquinolin-8-yl]-piperazin-1-yl}-ethanone]	10.7
COc1ncc(N2CCc3c(C(F)(F)F)ccc(N4CCN(C(=O)Cn5nc(C)nc5C)[C@H](C)C4)c3C2)cn1 [Example 23, 2-(3,5-Dimethyl-[1,2,4]triazol-1-yl)-1-{(R)-4-[2-(2-methoxy-pyrimidin-5-yl)-5-trifluoromethyl-1,2,3,4-tetrahydro-isoquinolin-8-yl]-2-methyl-piperazin-1-yl}-ethanone]	17.1
